System: 186277-243-T-J2-PDC complex spheroid growth
Test: Anticancer human tumor 186277-243-T-J2-PDC patient-derived colon adenocarcinoma cell line growth inhibition [AhR]
Conditions: for IC50: curve of first compound; for viability, T/C: stronger effect = lower value
Outline: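 Complex tumor spheroids co-cultured with HUVEC and human MSC stroma; AhR antagonists tested in combination with standard-of-care and investigational agents. Top concentration at or near clinical Cmax (else 10 microM), half-log dilutions; growth expressed as percent test/control.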
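Further: spheroids exposed to compounds for seven days before the viability read.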
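Wherever viability, T/C is given: luminescent signal used as a stand-in for viable cell amount; 100% = DMSO vehicle control wells.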

Work on `CC1(C)CCC(CN2CCN(c3ccc(C(=O)NS(=O)(=O)c4ccc(NCC5CCOCC5)c([N+](=O)[O-])c4)c(Oc4cnc5[nH]ccc5c4)c3)CC2)=C(c2ccc(Cl)cc2)C1` + Cc1ccccc1N=Nc1ccc(NC(=O)c2ccnn2C)c(C)c1 yielded an IC50 (second compound 0.1 µM) of 7.46 µM, an IC50 (second compound 0.316 µM) of 6.9 µM and an IC50 (second compound 1 µM) of 7.32 µM. It also gave an IC50 (second compound 3.16 µM) of 6.94 µM, an IC50 (second compound 10 µM) of 6.27 µM and a viability, T/C (second compound 0.1 µM, first compound 0.0316 µM) of 95.1%. The viability, T/C (second compound 0.1 µM, first compound 0.1 µM) was 98.9%, the viability, T/C (second compound 0.1 µM, first compound 0.316 µM) was 115% and the viability, T/C (second compound 0.1 µM, first compound 1 µM) was 110%. The viability, T/C (second compound 0.1 µM, first compound 3.16 µM) was 103%, the viability, T/C (second compound 0.1 µM, first compound 10 µM) was 31.8% and the viability, T/C (second compound 0.316 µM, first compound 0.0316 µM) was 94.1%. It also gave a viability, T/C (second compound 0.316 µM, first compound 0.1 µM) of 108%, a viability, T/C (second compound 0.316 µM, first compound 0.316 µM) of 96.4% and a viability, T/C (second compound 0.316 µM, first compound 1 µM) of 100%. It also gave a viability, T/C (second compound 0.316 µM, first compound 3.16 µM) of 87.9%, a viability, T/C (second compound 0.316 µM, first compound 10 µM) of 31.7% and a viability, T/C (second compound 1 µM, first compound 0.0316 µM) of 103%. For the same compound, the viability, T/C (second compound 1 µM, first compound 0.1 µM) was 99.3%, the viability, T/C (second compound 1 µM, first compound 0.316 µM) was 110% and the viability, T/C (second compound 1 µM, first compound 1 µM) was 98.2%. For the same compound, the viability, T/C (second compound 1 µM, first compound 3.16 µM) was 110%, the viability, T/C (second compound 1 µM, first compound 10 µM) was 29.8% and the viability, T/C (second compound 3.16 µM, first compound 0.0316 µM) was 91.3%. For the same compound, the viability, T/C (second compound 3.16 µM, first compound 0.1 µM) was 91.8%, the viability, T/C (second compound 3.16 µM, first compound 0.316 µM) was 100% and the viability, T/C (second compound 3.16 µM, first compound 1 µM) was 94.3%. It also gave a viability, T/C (second compound 3.16 µM, first compound 3.16 µM) of 91.2%, a viability, T/C (second compound 3.16 µM, first compound 10 µM) of 30.9% and a viability, T/C (second compound 10 µM, first compound 0.0316 µM) of 88.7%. The viability, T/C (second compound 10 µM, first compound 0.1 µM) was 82.5%, the viability, T/C (second compound 10 µM, first compound 0.316 µM) was 95.3% and the viability, T/C (second compound 10 µM, first compound 1 µM) was 92.5%. It also gave a viability, T/C (second compound 10 µM, first compound 3.16 µM) of 85.7% and a viability, T/C (second compound 10 µM, first compound 10 µM) of 25.5%.
Compound `CCN(c1cc(-c2ccc(CN3CCOCC3)cc2)cc(C(=O)NCc2c(C)cc(C)[nH]c2=O)c1C)C1CCOCC1` + Cc1ccccc1N=Nc1ccc(NC(=O)c2ccnn2C)c(C)c1 has an IC50 (second compound 0.1 µM) greater than 3 µM, an IC50 (second compound 0.316 µM) greater than 3 µM and an IC50 (second compound 1 µM) greater than 3 µM. For the same compound, the IC50 (second compound 3.16 µM) was greater than 3 µM, the IC50 (second compound 10 µM) was greater than 3 µM and the viability, T/C (second compound 0.1 µM, first compound 0.00949 µM) was 105%. The viability, T/C (second compound 0.1 µM, first compound 0.03 µM) was 118%, the viability, T/C (second compound 0.1 µM, first compound 0.0949 µM) was 112% and the viability, T/C (second compound 0.1 µM, first compound 0.3 µM) was 108%. For the same compound, the viability, T/C (second compound 0.1 µM, first compound 0.949 µM) was 102%, the viability, T/C (second compound 0.1 µM, first compound 3 µM) was 102% and the viability, T/C (second compound 0.316 µM, first compound 0.00949 µM) was 95.7%. It also gave a viability, T/C (second compound 0.316 µM, first compound 0.03 µM) of 109%, a viability, T/C (second compound 0.316 µM, first compound 0.0949 µM) of 100% and a viability, T/C (second compound 0.316 µM, first compound 0.3 µM) of 105%. For the same compound, the viability, T/C (second compound 0.316 µM, first compound 0.949 µM) was 103%, the viability, T/C (second compound 0.316 µM, first compound 3 µM) was 112% and the viability, T/C (second compound 1 µM, first compound 0.00949 µM) was 104%. For the same compound, the viability, T/C (second compound 1 µM, first compound 0.03 µM) was 102%, the viability, T/C (second compound 1 µM, first compound 0.0949 µM) was 102% and the viability, T/C (second compound 1 µM, first compound 0.3 µM) was 94.5%. For the same compound, the viability, T/C (second compound 1 µM, first compound 0.949 µM) was 100%, the viability, T/C (second compound 1 µM, first compound 3 µM) was 112% and the viability, T/C (second compound 3.16 µM, first compound 0.00949 µM) was 91%. For the same compound, the viability, T/C (second compound 3.16 µM, first compound 0.03 µM) was 94.7%, the viability, T/C (second compound 3.16 µM, first compound 0.0949 µM) was 99.5% and the viability, T/C (second compound 3.16 µM, first compound 0.3 µM) was 94%. For the same compound, the viability, T/C (second compound 3.16 µM, first compound 0.949 µM) was 107%, the viability, T/C (second compound 3.16 µM, first compound 3 µM) was 104% and the viability, T/C (second compound 10 µM, first compound 0.00949 µM) was 89.9%. The viability, T/C (second compound 10 µM, first compound 0.03 µM) was 91.2%, the viability, T/C (second compound 10 µM, first compound 0.0949 µM) was 86.3% and the viability, T/C (second compound 10 µM, first compound 0.3 µM) was 79.8%. For the same compound, the viability, T/C (second compound 10 µM, first compound 0.949 µM) was 84.2% and the viability, T/C (second compound 10 µM, first compound 3 µM) was 93.2%.

Source: PubChem BioAssay AID1918991 (Molecular Pharmacology Branch, DTP, NCI, 2023)
